The source of these data is US20250215371A1, “MOTOR UNIT CHIP, MANUFACTURING METHOD THEREOF AND METHOD OF DETECTING PATHOLOGICAL EVENT USING THE SAME” (Taipei Medical University, priority 2023, published 2025).

Holding throughout (assay type): cell-based, mouse
The subject of one test is MNs. Put plainly: Calcium imaging (fura-2) of motor neurons in the motor unit chip. Conditions: n=8 fields. On the procedure:
(§1) Tri-cultures on 12.5 mm glass coverslips were briefly washed in HEPES Hanks' Buffer Solution (HHBS) (5.6 mM glucose, 20 mM Hepes, 3 mM NaHCO3, 0.3 mM Na2HPO4, 0.4 mM KH2PO4, 137 mM NaCl, 5.0 mM KCl, […], 4.1 mM MgSO4, 1.26 mM CaCl2, pH=7.4) and then the coverslip was incubated with fura-2 AM in 0.04% pluronic acid dissolved in HHBS to a final concentration of 20 μM for 30 mins at 37° C. After loading indicator, coverslips were washed in fresh HBSS for 10 mins at 37° C. and then transferred to an imaging chamber for microscopy experiments. Fura-2 imaging was performed on an Olympus IX71 microscope using a 20× objective lens. […] Intracellular Ca^2+ concentration ([Ca^2+]i) was monitored by sequential excitation (1 Hz) of fura-2 at 340 and 380 nm. […]
(§2) Images were processed using MetaFluor Analyst to draw regions of interest (ROIs), subtract background, and generate 340/380 ratios. […] Criterion “1” was empirically determined to exclude cells with poor signal to noise ratio. […]
(§3) Data were analyzed using the Student's t test. […] For statistical analyses of calcium image, MN and myotube data were assessed for normality using the D′Agostino-Pearson normality test. […] Percent responders was calculated using number of responders/total MNs or myotubes in the field.

For another test, the system named is Schwann cells. As to the kind of experiment: Calcium imaging (fura-2) of Schwann cells in the tri-culture. The settings on record: 50 mM extracellular K^+ or 10 μM ACh. On the procedure:
After loading indicator, coverslips were washed in fresh HBSS for 10 mins at 37° C. and then transferred to an imaging chamber for microscopy experiments. Fura-2 imaging was performed on an Olympus IX71 microscope using a 20× objective lens. Excitation wavelength was selected with a galvanometer-driven monochromator (8 nm slit width) coupled to a 75 W xenon arc lamp (Optoscan; Cairn Research). […] A single image was acquired at 610 nm to identify mApple expressing MNs in the field. Fluorescent images were captured using a cooled charge-coupled device camera (Cascade 512B; Roper Scientific) and Metafluor acquisition software (Molecular Devices). All fura-2 experiments were performed in HBSS buffer at room temperature. To depolarize MNs the extracellular K^+ concentration was increased to 50 mM with K^+ exchanged reciprocally for Na+in HHBS. For myotube stimulation 10 μM ACh was applied by bath perfusion. A 60 s baseline in HHBS was acquired before stimulation of each coverslip. High K^+ was applied for 30 s and ACh for 1 min. After stimulus application, a washout of 60 s was performed. Background images were acquired after each experiment; the coverslip was wiped clean, then 20 frames were acquired using the same parameters as above. Images were processed using MetaFluor Analyst to draw regions of interest (ROIs), subtract background, and generate 340/380 ratios. […]

A further test has as its system myotubes. As to the kind of experiment: Calcium imaging (fura-2) of myotubes in the motor unit chip. Conditions: n=8 fields. On the procedure:
as §1, §2, §3

For the compound `[Cl-].[K+]` [K^+], the “MNs responded to 50 mM K^+ stimulation (percent responders)” value in the test with MNs (50 mM K^+ for 30 s, 43/62 cells) is 70%. Further, the “depolarization-evoked peak 340/380 ratio ([Ca^2+]i)” value with MNs (50 mM K^+, basal 340/380 ratio 0.62±0.06, mean ±SD) is given as 1.83±1.41. Also, the “changes in [Ca^2+]i in Schwann cells” value with Schwann cells was “did not show any changes in [Ca^2+]i”.
On to `CC(=O)OCC[N+](C)(C)C` [ACh, acetylcholine], for which, in the test on myotubes (10 μM ACh for 60 s, 24/27 cells), the “myotubes responded to ACh stimulation (percent responders)” value was determined as 89%. Also, the “ACh-evoked peak 340/380 ratio ([Ca^2+]i)” value in the test on myotubes (10 μM ACh, basal 340/380 ratio 0.68±0.12, mean ±SD) was 3.62±2.73.
